Source: the CheMixHub viscosity set

Assay: xn = mol fraction of the nth substance listed

CCCCCOC(=O)CCC + CC(=O)O
viscosity [mPa·s], 101 kPa
Conditions | 298.15 K | 313.15 K
x1 = 0.1013 | 1.06 | 0.853
x1 = 0.1499 | 1.04 | 0.836
x1 = 0.2007 | 1.02 | 0.824
x1 = 0.2515 | 1.03 | 0.827
x1 = 0.3014 | 1.03 | 0.833
x1 = 0.4 | 1.04 | 0.833
x1 = 0.4999 | 1.05 | 0.846
x1 = 0.6018 | 1.07 | 0.85
x1 = 0.6919 | 1.08 | 0.859
x1 = 0.804 | 1.08 | 0.86
x1 = 0.8906 | 1.08 | 0.861
x1 = 0.9459 | 1.07 | 0.859

Cc1ccccc1O + CC(=O)O
viscosity [mPa·s], 101 kPa
Conditions | x2 = 0.167 | x2 = 0.3109 | x2 = 0.4361 | x2 = 0.5461 | x2 = 0.6434 | x2 = 0.7302 | x2 = 0.8081 | x2 = 0.8783 | x2 = 0.942
298.15 K | 5.871 | 4.718 | 3.853 | 3.149 | 2.615 | 2.165 | 1.808 | 1.529 | 1.307
308.15 K | 4.539 | 3.776 | 3.151 | 2.619 | 2.204 | 1.86 | 1.595 | 1.328 | 1.139
318.15 K | 3.157 | 2.82 | 2.465 | 2.137 | 1.812 | 1.542 | 1.322 | 1.135 | 0.9519

CCCCCOC(C)=O + CC(=O)OCc1ccccc1
Conditions | viscosity [mPa·s]
298.15 K, 101 kPa, x1 = 0.5 | 0.9738

CCCCCOC(C)=O + CC(=O)c1ccccc1
298.15 K, 101 kPa
Conditions | viscosity [mPa·s]
x2 = 0.0465 | 0.802
x2 = 0.0891 | 0.8174

CN(C)CCO + CC(=O)c1ccccc1
viscosity [mPa·s], 101.3 kPa
Conditions | x2 = 0.0879 | x2 = 0.1782 | x2 = 0.2709 | x2 = 0.3663 | x2 = 0.4644 | x2 = 0.5654 | x2 = 0.6693 | x2 = 0.7762 | x2 = 0.8864
303.15 K | 2.331 | 2.243 | 2.155 | 2.067 | 1.98 | 1.892 | 1.804 | 1.716 | 1.628
313.15 K | 1.952 | 1.882 | 1.811 | 1.741 | 1.67 | 1.6 | 1.529 | 1.459 | 1.388
323.15 K | 1.689 | 1.644 | 1.6 | 1.555 | 1.51 | 1.465 | 1.42 | 1.375 | 1.33

Cc1ccccc1O + CC(=O)c1ccccc1
303.15 K, 101 kPa
Conditions | viscosity [mPa·s]
x2 = 0.11 | 5.369
x2 = 0.2168 | 4.793
x2 = 0.3155 | 4.305
x2 = 0.4164 | 3.832
x2 = 0.4556 | 3.653
x2 = 0.5575 | 3.206
x2 = 0.6919 | 2.635
x2 = 0.7608 | 2.358
x2 = 0.9488 | 1.668

CCCCCOC(C)=O + CC(C)=O
298.15 K, 101 kPa
Conditions | viscosity [mPa·s]
x2 = 0.17 | 0.688
x2 = 0.336 | 0.6224

ClCC(Cl)Cl + CC(C)=O
298.15 K, 101 kPa
Conditions | viscosity [mPa·s]
x2 = 0.212 | 0.91
x2 = 0.366 | 0.799
x2 = 0.497 | 0.677
x2 = 0.611 | 0.577
x2 = 0.704 | 0.509
x2 = 0.779 | 0.456
x2 = 0.837 | 0.411
x2 = 0.949 | 0.347

C1CCC2=[NH+]CCCN2CC1.c1nc[n-]n1 + CC(C)O
303.15 K, 100 kPa
Conditions | viscosity [mPa·s]
x1 = 0.1001 | 7.85
x1 = 0.2 | 11.12
x1 = 0.2999 | 23.38
x1 = 0.4003 | 47.5
x1 = 0.4989 | 98.71
x1 = 0.6002 | 185.2
x1 = 0.7008 | 298.3
x1 = 0.7993 | 439.8
x1 = 0.9002 | 746.1

CC(C)CO + CC(C)O
viscosity [mPa·s], 101 kPa
Conditions | x2 = 0.2 | x2 = 0.4 | x2 = 0.6 | x2 = 0.8
293.15 K | 3.536 | 3.163 | 2.856 | 2.597
313.15 K | 1.923 | 1.742 | 1.586 | 1.449

CCCCCC + CC(C)O
viscosity [mPa·s], 101 kPa
Conditions | 298.15 K | 308.15 K
x2 = 0.0486 | 0.318 | 0.26
x2 = 0.1046 | 0.326 | 0.268
x2 = 0.1633 | 0.334 | 0.276
x2 = 0.272 | 0.364 | 0.31
x2 = 0.3138 | 0.377 | 0.33
x2 = 0.3636 | 0.399 | 0.36
x2 = 0.4036 | 0.42 | 0.382
x2 = 0.5026 | 0.496 | 0.451
x2 = 0.563 | 0.557 | 0.508
x2 = 0.6074 | 0.613 | 0.561
x2 = 0.6996 | 0.763 | 0.694
x2 = 0.8182 | 1.06 | 0.934
x2 = 0.9038 | 1.4 | 1.237
x2 = 0.9566 | 1.723 | 1.379

CC(C)(C)c1ccccc1 + CC(C)c1ccccc1
303.15 K, 101.3 kPa
Conditions | viscosity [mPa·s]
x2 = 0.039 | 0.9864
x2 = 0.1371 | 0.9507
x2 = 0.2661 | 0.9067
x2 = 0.4247 | 0.8551
x2 = 0.4906 | 0.8347
x2 = 0.6105 | 0.7984
x2 = 0.7457 | 0.7572
x2 = 0.8708 | 0.7224
x2 = 0.9592 | 0.6981
